Assay results from patent US20240228480A1, “PROCESSES FOR PREPARING PYRROLOPYRIDINE-ANILINE COMPOUNDS” (NFLECTION THERAPEUTICS, INC., priority 2021, published 2024).
Entries after “also recorded” stand apart in the source; their conditions may differ.

How the values were obtained:
[1] = Stability of Compound (II) suspended in various solvents (slurry experiment, HPLC area %); assay type: physicochemical
Source text: Therefore, the first course of action was to find a suitable solvent in which to suspend compound (II) for the addition to the first mixture of step 6a).

[2] = clinical trials; cited from earlier work

## Cn1c(Nc2ccc(I)cc2F)c(C(=O)Cl)c2cccnc21 [Compound (II)]
[1]; solvent 2-Me-THF
  Area % t = 10 min: 88.0 Area %
  Area % t = 2 h: 77.8 Area %
  Area % t = 17 h: 75.3 Area %
[1]; solvent DCM
  Area % t = 10 min: 91.4 Area %
  Area % t = 2 h: 90.5 Area %
  Area % t = 17 h: 85.3 Area %
[1]; solvent Heptane
  Area % t = 10 min: *68.6 Area %
  Area % t = 2 h: 88.4 Area %
  Area % t = 17 h: 91.8 Area %
[1]; solvent IPAc
  Area % t = 10 min: *81.6 Area %
  Area % t = 2 h: 93.3 Area %
  Area % t = 17 h: 90.4 Area %
[1]; solvent MTBE
  Area % t = 10 min: 92.9 Area %
  Area % t = 2 h: *81.6 Area %
  Area % t = 17 h: 87.2 Area %
[1]; solvent MeCN
  Area % t = 10 min: 87.4 Area %
  Area % t = 2 h: 79.2 Area %
  Area % t = 17 h: 65.5 Area %
[1]; solvent THF
  Area % t = 10 min: 90.0 Area %
  Area % t = 2 h: 83.7 Area %
  Area % t = 17 h: 63.7 Area %
[1]; suspended in THF for a period of time (e.g., >10 h)
  Decomposition when suspended in THF: Decomposition of compound (II) was found to occur

## O=C(NOC[C@H](O)CO)c1ccc(F)c(F)c1Nc1ccc(I)cc1F [PD0325901]
[2]
  Side effects exhibited: neurological side effects associated with ataxia, confusion, and syncope; also recorded: one or more neurological side effects associated with ataxia, confusion, and syncope
